Results: the NIST ThermoML archive (doi:10.1016/j.jct.2018.02.001)

Experiments:
[1] = 101.33 kPa, Liquid, Vibrating tube method
[2] = mn = molality of the nth substance listed, in mol/kg; settings: 100 kPa, Liquid, Vibrating tube method

CCCCn1cc[n+](CCCC)c1.[Br-] [1,3-dibutylimidazolium bromide]
[1]
Settings | mass density [kg/m3]
293.15 K | 1197.07
298.15 K | 1193.75
303.15 K | 1190.32
308.15 K | 1186.85
313.15 K | 1183.34
318.15 K | 1180.06
323.15 K | 1176.52

CCCCn1cc[n+](CCCC)c1.[Br-] [1,3-dibutylimidazolium bromide] + O
mass density [kg/m3], [2]
Settings | m1 = 0.01076 | m1 = 0.01516 | m1 = 0.02165 | m1 = 0.02575 | m1 = 0.03042 | m1 = 0.0354 | m1 = 0.04047
293.15 K | 998.64 | 998.84 | 999.13 | 999.32 | 999.54 | 999.77 | 1000
298.15 K | 997.46 | 997.65 | 997.93 | 998.11 | 998.31 | 998.52 | 998.74
303.15 K | 995.91 | 996.08 | 996.4 | 996.57 | 996.78 | 996.98 | 997.16
308.15 K | 994.12 | 994.3 | 994.63 | 994.79 | 995 | 995.2 | 995.35

CCn1cc[n+](CC)c1.[Br-] [1,3-diethyl-1H-imidazolium bromide]
[1]
Settings | mass density [kg/m3]
293.15 K | 1355.06
298.15 K | 1351.21
303.15 K | 1347.51
308.15 K | 1343.75
313.15 K | 1339.95
318.15 K | 1336.13
323.15 K | 1332.29

CCn1cc[n+](CC)c1.[Br-] [1,3-diethyl-1H-imidazolium bromide] + O
mass density [kg/m3], [2]
Settings | m1 = 0.01477 | m1 = 0.01845 | m1 = 0.02167 | m1 = 0.0271 | m1 = 0.03151 | m1 = 0.035 | m1 = 0.04375 | m1 = 0.04513 | m1 = 0.05018
293.15 K | 998.92 | 999.11 | 999.27 | 999.55 | 999.78 | 999.96 | 1000.42 | 1000.49 | 1000.75
298.15 K | 997.72 | 997.91 | 998.07 | 998.35 | 998.57 | 998.75 | 999.19 | 999.26 | 999.51
303.15 K | 996.18 | 996.36 | 996.52 | 996.8 | 997.03 | 997.2 | 997.63 | 997.7 | 997.94
308.15 K | 994.23 | 994.41 | 994.58 | 994.87 | 995.11 | 995.29 | 995.71 | 995.77 | 995.97

CCCCCCCCCCCC[n+]1ccn(CCCC)c1.[Br-] [1-butyl-3-dodecyl-1H-imidazolium bromide]
[1]
Settings | mass density [kg/m3]
293.15 K | 1059.3
298.15 K | 1055.99
303.15 K | 1052.6
308.15 K | 1049.18
313.15 K | 1045.73
318.15 K | 1042.27
323.15 K | 1038.83

CCCCCCCCCCCC[n+]1ccn(CCCC)c1.[Br-] [1-butyl-3-dodecyl-1H-imidazolium bromide] + O
mass density [kg/m3], [2]
Settings | 293.15 K | 298.15 K | 303.15 K
m1 = 0.0055 | 998.33 | 997.09 | 995.65
m1 = 0.0082 | 998.38 | 997.13 | 995.66
m1 = 0.0092 | 998.4 | 997.15 | 995.68
m1 = 0.0149 | 998.51 | 997.26 | 995.7
m1 = 0.0217 | 998.64 | 997.39 | 995.82
m1 = 0.0252 | 998.71 | 997.46 | 995.9
m1 = 0.0317 | 998.83 | 997.58 | 996
m1 = 0.0337 | 998.87 | 997.62 | 996.04
m1 = 0.0399 | 999 | 997.74 | 996.15
m1 = 0.0479 | 999.15 | 997.88 | 996.3
m1 = 0.0503 | 999.19 | 997.92 | 996.34

CCCC[n+]1ccn(CC)c1.[Br-] [1-butyl-3-ethylimidazolium bromide]
[1]
Settings | mass density [kg/m3]
293.15 K | 1263.23
298.15 K | 1259.4
303.15 K | 1255.95
308.15 K | 1252.45
313.15 K | 1248.92
318.15 K | 1245.45
323.15 K | 1241.93

CCCCCC[n+]1ccn(CCCC)c1.[Br-] [1-butyl-3-hexyl-1H-imidazolium bromide]
[1]
Settings | mass density [kg/m3]
293.15 K | 1148.8
298.15 K | 1145.49
303.15 K | 1142.11
308.15 K | 1138.66
313.15 K | 1135.17
318.15 K | 1131.7
323.15 K | 1128.22

CCCCCC[n+]1ccn(CCCC)c1.[Br-] [1-butyl-3-hexyl-1H-imidazolium bromide] + O
mass density [kg/m3], [2]
Settings | m1 = 0.0051 | m1 = 0.0109 | m1 = 0.01511 | m1 = 0.01999 | m1 = 0.02536 | m1 = 0.03025 | m1 = 0.03503 | m1 = 0.03996 | m1 = 0.0452 | m1 = 0.05
293.15 K | 998.4 | 998.6 | 998.8 | 999 | 999.22 | 999.42 | 999.62 | 999.82 | 1000.03 | 1000.23
298.15 K | 997.22 | 997.41 | 997.6 | 997.79 | 998.01 | 998.2 | 998.39 | 998.58 | 998.79 | 998.978
303.15 K | 995.73 | 995.88 | 996.06 | 996.24 | 996.44 | 996.64 | 996.82 | 997.01 | 997.21 | 997.38
308.15 K | 994.04 | 994.09 | 994.2 | 994.38 | 994.6 | 994.81 | 994.99 | 995.17 | 995.35 | 995.51

CCCCCCCC[n+]1ccn(CCCC)c1.[Br-] [1-butyl-3-octyl-1H-imidazolium bromide]
[1]
Settings | mass density [kg/m3]
293.15 K | 1123.09
298.15 K | 1119.72
303.15 K | 1116.27
308.15 K | 1112.79
313.15 K | 1109.25
318.15 K | 1105.74
323.15 K | 1102.23

CCCCCCCC[n+]1ccn(CCCC)c1.[Br-] [1-butyl-3-octyl-1H-imidazolium bromide] + O
mass density [kg/m3], [2]
Settings | m1 = 0.0055 | m1 = 0.01 | m1 = 0.015 | m1 = 0.0216 | m1 = 0.0285 | m1 = 0.0346 | m1 = 0.0412 | m1 = 0.0498
293.15 K | 998.38 | 998.55 | 998.75 | 999.02 | 999.32 | 999.58 | 999.85 | 1000.22
298.15 K | 997.16 | 997.36 | 997.53 | 997.77 | 998.04 | 998.28 | 998.54 | 998.88
303.15 K | 995.68 | 995.77 | 995.96 | 996.2 | 996.48 | 996.71 | 996.97 | 997.31
308.15 K | 994.05 | 994.08 | 994.1 | 994.32 | 994.61 | 994.83 | 995.08 | 995.4

CCCCCC[n+]1ccn(CC)c1.[Br-] [1-ethyl-3-hexyl-1H-imidazolium bromide] + O
mass density [kg/m3], [2]
Settings | m1 = 0.0092 | m1 = 0.012 | m1 = 0.0168 | m1 = 0.02 | m1 = 0.0248 | m1 = 0.0295 | m1 = 0.0358 | m1 = 0.0432 | m1 = 0.0495
293.15 K | 998.59 | 998.73 | 998.92 | 999.06 | 999.26 | 999.47 | 999.75 | 1000.07 | 1000.35
298.15 K | 997.35 | 997.48 | 997.66 | 997.79 | 998 | 998.2 | 998.48 | 998.8 | 999.08
303.15 K | 995.82 | 995.93 | 996.11 | 996.24 | 996.43 | 996.64 | 996.9 | 997.21 | 997.48
308.15 K | 994.05 | 994.09 | 994.21 | 994.33 | 994.51 | 994.7 | 994.96 | 995.26 | 995.51

CCCCCCCC[n+]1ccn(CC)c1.[Br-] [1-ethyl-3-octyl-1H-imidazolium bromide] + O
mass density [kg/m3], [2]
Settings | 293.15 K | 298.15 K | 303.15 K | 308.15 K
m1 = 0.0128 | 998.68 | 997.48 | 995.95 | 994.18
m1 = 0.0143 | 998.75 | 997.55 | 996.03 | 994.25
m1 = 0.0149 | 998.78 | 997.58 | 996.06 | 994.27
m1 = 0.0171 | 998.87 | 997.68 | 996.14 | 994.36
m1 = 0.0206 | 999.02 | 997.83 | 996.29 | 994.5
m1 = 0.0216 | 999.07 | 997.87 | 996.33 | 994.55
m1 = 0.026 | 999.25 | 998.06 | 996.51 | 994.71
m1 = 0.0313 | 999.47 | 998.28 | 996.73 | 994.91
m1 = 0.0355 | 999.65 | 998.45 | 996.91 | 995.08
m1 = 0.0377 | 999.74 | 998.54 | 997 | 995.16
m1 = 0.0436 | 999.99 | 998.77 | 997.24 | 995.39

CCCCCCCCCCCC[n+]1ccn(CC)c1.[Br-] [3-dodecyl-1-ethyl-1H-imidazolium bromide] + O
mass density [kg/m3], [2]
Settings | m1 = 0.0061 | m1 = 0.0074 | m1 = 0.0109 | m1 = 0.015 | m1 = 0.021 | m1 = 0.0257 | m1 = 0.0362 | m1 = 0.0521
293.15 K | 998.38 | 998.42 | 998.52 | 998.64 | 998.81 | 998.94 | 999.24 | 999.68
298.15 K | 997.16 | 997.19 | 997.27 | 997.38 | 997.53 | 997.65 | 997.91 | 998.31
303.15 K | 995.65 | 995.68 | 995.73 | 995.83 | 995.99 | 996.12 | 996.37 | 996.72
